Experiment [1] concerns T1, KaPOx_xalh.
T1 construct: gene KaPOx; C-terminal His6; pET-21a(+), E. coli T7 Express
In words: Amplex Red / horseradish peroxidase coupled oxidase assay, steady state. It is filed as biochemical, Kitasatospora aureofaciens. The conditions noted are these: air O2 ~250 μM, 50 mM Tris/HCl pH 7.5, 30 °C; read-out: [drawing 2] Phlorizin / K m/mM. An excerpt:
Amplex Red / horseradish peroxidase coupled oxidase assay, steady state on KaPOx_xalh

The subject of experiment [2] is T2, KaPOx_xal.
T2 construct: gene KaPOx; KaPOx with arm domain and oligomerization loop replaced by ScPOx insertion-1 domain and flexible loop; C-terminal His6; pET-21a(+), E. coli T7 Express
Described as above. It counts as biochemical, Kitasatospora aureofaciens. The conditions noted are these: air O2 ~250 μM, 50 mM Tris/HCl pH 7.5, 30 °C; read-out: [drawing 2] Phlorizin / K m/mM. An excerpt: Amplex Red / horseradish peroxidase coupled oxidase assay, steady state on KaPOx_xal

As for `O=C(CCc1ccc(O)cc1)c1c(O)cc(O)cc1O[C@@H]1O[C@H](CO)[C@@H](O)[C@H](O)[C@H]1O` [Phlorizin], the values for the Km in experiment [1] and in experiment [2] were 0.019 ± 0.003 mM and 0.015 ± 0.002 mM, respectively.

The values above are taken from article PMC12062775, “Shifting the substrate scope of dimeric pyranose oxidase from monosaccharide to glycoside preference through oligomeric state modification” (The Febs Journal, 2025).
